Measurements as given in patent US6274715A, “Tricyclic erythromycin derivatives” (priority 1997, dated 2001).
Values after ≈ are worked out from the molar mass of the structure shown.

Experiments:
Assay type in all cases: cell-based
[1] = test system: STR[…] 508; test: In vitro antibacterial activity, MIC, BHI agar dilution; details: S. agalactiae CMX 508, unit assumed
In short: (§1)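 BHI agar dilution, 12 plates; inoculum 1:100 (1:10 slow-growing strains), Steers replicator; 35-37° C, 20-24 h. MIC = lowest conc. with no growth/slight haze/sparse colonies vs growth control, visual read. Erythromycin A reference plate.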

[2] = test system: M[…] ATCC 4698; test: as above; details: M. luteus ATCC 4698, unit assumed
In short: as §1

[3] = test system: EN[…] ATCC 8043; test: as above; details: E. faecium ATCC 8043, unit assumed
In short: as §1

[4] = test system: M[…] ATCC 9341; test: as above; details: M. luteus ATCC 9341, unit assumed
In short: as §1

[5] = test system: ESCHERICHIA COLI JUHL; details: E. coli JUHL; BHI agar; unit assumed
[6] = test system: MYCOBACTERIUM SMEGMATIS ATCC 114; test: In vitro antibacterial activity, MIC, BHI agar dilution; details: M. smegmatis ATCC 114, unit assumed
[7] = test system: STAPHYLOCOCCUS AUREUS NCTC10649M; test: as above; details: S. aureus NCTC10649M, unit assumed
[8] = test system: PSEUDOMONAS AERUGINOSA DPHD-2862; test: as above; details: P. aeruginosa DPHD-2862, unit assumed
[9] = test system: STAPHYLOCOCCUS AUREUS ATCC 6538P; test: as above; details: S. aureus ATCC 6538P, 35-37° C., 20 to 24 hours, unit assumed
[10] = test system: PSEUDOMONAS AERUGINOSA 5007; test: as above; details: P. aeruginosa 5007, unit assumed
[11] = test system: ESCHERICHIA COLI DC-2; test: as above; details: E. coli DC-2, unit assumed
[12] = test system: PSEUDOMONAS AERUGINOSA K799/WT; test: as above; details: P. aeruginosa K799/WT, unit assumed
[13] = test system: STREPTOCOCCUS PYOGENES EES61; test: as above; details: S. pyogenes EES61, unit assumed
[14] = test system: ESCHERICHIA COLI KNK 437; details: E. coli KNK 437; BHI agar; unit assumed
[15] = test system: ESCHERICHIA COLI SS; test: In vitro antibacterial activity, MIC, BHI agar dilution; details: E. coli SS, unit assumed
[16] = test system: PSEUDOMONAS AERUGINOSA BMH10; test: as above; details: P. aeruginosa BMH10, unit assumed
[17] = test system: STAPHYLOCOCCUS EPIDERMIDIS 3519; details: S. epidermidis 3519; BHI agar; unit assumed
[18] = test system: STREPTOCOCCUS BOVIS A-5169; test: In vitro antibacterial activity, MIC, BHI agar dilution; details: S. bovis A-5169, unit assumed
[19] = test system: STAPHYLOCOCCUS AUREUS A5177; test: as above
[20] = test system: PROVIDENCIA STUARTII CMX 640; details: P. stuartii CMX 640; BHI agar; unit assumed
[21] = test system: ACINETOBACTER CALCOACETICUS CMX 669; test: In vitro antibacterial activity, MIC, BHI agar dilution; details: A. calcoaceticus CMX 669, unit assumed
[22] = test system: KLEBSIELLA PNEUMONIAE ATCC 8045; test: as above; details: K. pneumoniae ATCC 8045, unit assumed
[23] = test system: STAPHYLOCOCCUS AUREUS CMX 553; test: as above; details: S. aureus CMX 553, unit assumed
[24] = test system: CANDIDA ALBICANS CCH 442; test: as above; details: C. albicans CCH 442, unit assumed
[25] = test system: STAPHYLOCOCCUS AUREUS 1775; test: as above; details: S. aureus 1775, unit assumed
[26] = test system: ENTEROBACTER AEROGENES ATCC 13048; test: as above; details: E. aerogenes ATCC 13048, unit assumed
[27] = test system: PSEUDOMONAS CEPACIA 296I; test: as above; details: P. cepacia 296I, unit assumed
[28] = test system: STREPTOCOCCUS PYOGENES 930; test: as above; details: S. pyogenes 930, unit assumed
[29] = test system: STAPHYLOCOCCUS AUREUS CMX 642A; test: as above; details: S. aureus CMX 642A, unit assumed
[30] = test system: PSEUDOMONAS AERUGINOSA K799/61; test: as above; details: P. aeruginosa K799/61, unit assumed
[31] = test system: STAPHYLOCOCCUS AUREUS A-5278; test: as above; details: S. aureus A-5278, unit assumed
[32] = test system: ESCHERICHIA COLI H560; test: as above; details: E. coli H560, unit assumed
[33] = test system: PSEUDOMONAS AERUGINOSA DPHD-5263; test: as above; details: P. aeruginosa DPHD-5263, unit assumed
[34] = test system: STREPTOCOCCUS PYOGENES PIU 2548; test: as above; details: S. pyogenes PIU 2548, unit assumed

CC[C@H]1OC(=O)[C@H](C)C(=O)[C@H](C)[C@@H](O[C@@H]2O[C@H](C)C[C@H](N(C)C)[C@H]2O)[C@](C)(OC)C[C@@H](C)C2=N[C@H](COCc3ccc(C#N)cc3)CN3C(=O)O[C@@]1(C)[C@H]3[C@H]2C [Example 74]
MIC [1]: 0.02 µg/mL (≈ 0.0255 µM) | MIC [2]: 0.39 µg/mL (≈ 0.498 µM) | MIC [3]: 0.02 µg/mL (≈ 0.0255 µM) | MIC [4]: 0.02 µg/mL (≈ 0.0255 µM) | MIC [5]: > 100 µg/mL | MIC [6]: 0.39 µg/mL (≈ 0.498 µM) | MIC [7]: 0.1 µg/mL (≈ 0.128 µM) | MIC [8]: > 100 µg/mL | MIC [9]: 0.2 µg/mL (≈ 0.255 µM) | MIC [10]: > 100 µg/mL | MIC [11]: 100 µg/mL (≈ 128 µM) | MIC [12]: 100 µg/mL (≈ 128 µM) | MIC [13]: ≤ 5 ng/mL | MIC [14]: > 100 µg/mL | MIC [15]: 0.39 µg/mL (≈ 0.498 µM) | MIC [16]: > 100 µg/mL | MIC [17]: 0.2 µg/mL (≈ 0.255 µM) | MIC [18]: ≤ 5 ng/mL | MIC ([19]; S. aureus A5177): 0.1 µg/mL (≈ 0.128 µM) | MIC [20]: > 100 µg/mL | MIC [21]: 50 µg/mL (≈ 63.9 µM) | MIC [22]: > 100 µg/mL | MIC [23]: 0.1 µg/mL (≈ 0.128 µM) | MIC [24]: > 100 µg/mL | MIC [25]: > 100 µg/mL | MIC [26]: > 100 µg/mL | MIC [27]: 50 µg/mL (≈ 63.9 µM) | MIC [28]: > 100 µg/mL | MIC [29]: 0.2 µg/mL (≈ 0.255 µM) | MIC [30]: 3.1 µg/mL (≈ 3.96 µM) | MIC [31]: > 100 µg/mL | MIC [32]: 100 µg/mL (≈ 128 µM) | MIC [33]: > 100 µg/mL

CC[C@H]1OC(=O)[C@H](C)C(=O)[C@H](C)[C@@H](O[C@@H]2O[C@H](C)C[C@H](N(C)C)[C@H]2O)[C@](C)(OC)C[C@@H](C)C2=N[C@H](COCc3ccc(OC)cc3)CN3C(=O)O[C@@]1(C)[C@H]3[C@H]2C [Example 90]
MIC [1]: 0.02 µg/mL (≈ 0.0254 µM) | MIC [2]: 0.78 µg/mL (≈ 0.99 µM) | MIC [3]: 0.02 µg/mL (≈ 0.0254 µM) | MIC [4]: 0.1 µg/mL (≈ 0.127 µM) | MIC [5]: > 100 µg/mL | MIC [6]: 0.78 µg/mL (≈ 0.99 µM) | MIC [7]: 0.78 µg/mL (≈ 0.99 µM) | MIC [8]: > 100 µg/mL | MIC [9]: 0.39 µg/mL (≈ 0.495 µM) | MIC [10]: > 100 µg/mL | MIC [11]: > 100 µg/mL | MIC [12]: > 100 µg/mL | MIC [13]: ≤ 5 ng/mL | MIC [14]: > 100 µg/mL | MIC [15]: 0.78 µg/mL (≈ 0.99 µM) | MIC [16]: > 100 µg/mL | MIC [17]: 0.39 µg/mL (≈ 0.495 µM) | MIC ([19]; S. aureus A5177, unit assumed): 0.39 µg/mL (≈ 0.495 µM) | MIC [20]: > 100 µg/mL | MIC [21]: 100 µg/mL (≈ 127 µM) | MIC [22]: > 100 µg/mL | MIC [23]: 0.39 µg/mL (≈ 0.495 µM) | MIC [24]: > 100 µg/mL | MIC [25]: > 100 µg/mL | MIC [26]: > 100 µg/mL | MIC [27]: > 100 µg/mL | MIC [34]: 0.78 µg/mL (≈ 0.99 µM) | MIC [29]: 0.39 µg/mL (≈ 0.495 µM) | MIC [30]: 6.2 µg/mL (≈ 7.87 µM) | MIC [31]: > 100 µg/mL | MIC [32]: 50 µg/mL (≈ 63.5 µM) | MIC [33]: > 100 µg/mL
